The source of these data is ChEMBL document CHEMBL2029284, “Synthesis and biological evaluation of ticagrelor derivatives as novel antiplatelet agents” (2012).

The structures appear in SMILES notation. Active and inactive are the calls of the source. The rule behind the calls is not given here.

In this assay the test system is Rattus norvegicus. The assay is described as follows: Antiplatelet activity in Sprague-Dawley rat assessed as ex-vivo inhibition of ADP-induced platelet aggregation at 5 mg/kg, po at 0.5 hrs by Born's method relative to vehicle-treated control. Format: functional.
For orientation: inhibition in vivo means how much of the control response was suppressed. With `CCCSc1nc(N[C@@H]2C[C@H]2c2ccc(F)c(F)c2)c2nnn([C@@H]3C[C@H](O)[C@@H](O)[C@H]3O)c2n1`, the inhibition in vivo at 5 mg/kg was determined as 45.7%.

As for `CCCSc1nc(N[C@@H]2C[C@H]2c2ccc(F)c(F)c2)c2nnn([C@@H]3C[C@H](OCCOC(=O)c4ccccc4)[C@@H](O)[C@H]3O)c2n1`, the inhibition entry was “inactive”.

In the case of `CCCSc1nc(N[C@@H]2C[C@H]2c2ccc(F)c(F)c2)c2nnn([C@@H]3C[C@H](OC(=O)c4ccccc4)[C@@H](O)[C@H]3O)c2n1`, the inhibition in vivo at 5 mg/kg was found to be 20.1%.

For the molecule `CCCSc1nc(N[C@@H]2C[C@H]2c2ccc(F)c(F)c2)c2nnn([C@@H]3C[C@H](OC(=O)OCC(C)C)[C@@H](O)[C@H]3O)c2n1`, the inhibition in vivo at 5 mg/kg was 13.2%.

With `CCCSc1nc(N[C@@H]2C[C@H]2c2ccc(F)c(F)c2)c2nnn([C@@H]3C[C@H](OC(=O)CCC)[C@@H](O)[C@H]3O)c2n1`, the inhibition in vivo at 5 mg/kg amounted to 28.5%.

Take `CCCSc1nc(N[C@@H]2C[C@H]2c2ccc(F)c(F)c2)c2nnn([C@@H]3C[C@H](OCCOC(=O)c4cccnc4)[C@@H](O)[C@H]3O)c2n1`: the inhibition entry was “inactive”.

As for `CCCSc1nc(N[C@@H]2C[C@H]2c2ccc(F)c(F)c2)c2nnn([C@@H]3C[C@H](OC(=O)OCC)[C@@H](O)[C@H]3O)c2n1`, the inhibition in vivo at 5 mg/kg was determined as 42.5%.

With `CCCSc1nc(N[C@@H]2C[C@H]2c2ccc(F)c(F)c2)c2nnn([C@@H]3C[C@H](OCCOC(=O)OCC)[C@@H](O)[C@H]3O)c2n1`, the inhibition in vivo at 5 mg/kg was 47.7%.

On to `CCCSc1nc(N[C@@H]2C[C@H]2c2ccc(F)c(F)c2)c2nnn([C@@H]3C[C@H](OCCO)[C@@H](O)[C@H]3O)c2n1` [TICAGRELOR], for which the inhibition in vivo at 5 mg/kg was determined as 66.3%.

Turning to `CCCSc1nc(N[C@@H]2C[C@H]2c2ccc(F)c(F)c2)c2nnn([C@@H]3C[C@H](OCCOC(=O)CCC)[C@@H](O)[C@H]3O)c2n1`, the inhibition result is “inactive”.

As to `CCCSc1nc(N[C@@H]2C[C@H]2c2ccc(F)c(F)c2)c2nnn([C@@H]3C[C@H](OCCOC(=O)C(C)(C)C)[C@@H](O)[C@H]3O)c2n1`, the inhibition in vivo at 5 mg/kg came out at 46.1%.

`CCCSc1nc(N[C@@H]2C[C@H]2c2ccc(F)c(F)c2)c2nnn([C@@H]3C[C@H](OC(=O)CC)[C@@H](O)[C@H]3O)c2n1`: the inhibition in vivo at 5 mg/kg stood at 44.5%.

Consider `CCCSc1nc(N[C@@H]2C[C@H]2c2ccc(F)c(F)c2)c2nnn([C@@H]3C[C@H](OC(=O)C(C)(C)C)[C@@H](O)[C@H]3O)c2n1`, for which the inhibition entry was “inactive”.
